Consider two compounds from patent US20230277630A1, “METHODS AND COMPOSITIONS FOR TREATING AMYOTROPHIC LATERAL SCLEROSIS” (Amylyx Pharmaceuticals, Inc., priority 2022, published 2023).

The structures appear in SMILES notation. pIC50: −log10 of the molar value. Where “and” joins values, the source holds several entries; their conditions need not be identical. Equal values may be shown once. Read-outs that look alike come from different tables or passages of the source.

Data set [1] deals with T1, OATP1B1 (Homo sapiens, UniProt Q9Y6L6).
T1 sequence (Q9Y6L6 1-691): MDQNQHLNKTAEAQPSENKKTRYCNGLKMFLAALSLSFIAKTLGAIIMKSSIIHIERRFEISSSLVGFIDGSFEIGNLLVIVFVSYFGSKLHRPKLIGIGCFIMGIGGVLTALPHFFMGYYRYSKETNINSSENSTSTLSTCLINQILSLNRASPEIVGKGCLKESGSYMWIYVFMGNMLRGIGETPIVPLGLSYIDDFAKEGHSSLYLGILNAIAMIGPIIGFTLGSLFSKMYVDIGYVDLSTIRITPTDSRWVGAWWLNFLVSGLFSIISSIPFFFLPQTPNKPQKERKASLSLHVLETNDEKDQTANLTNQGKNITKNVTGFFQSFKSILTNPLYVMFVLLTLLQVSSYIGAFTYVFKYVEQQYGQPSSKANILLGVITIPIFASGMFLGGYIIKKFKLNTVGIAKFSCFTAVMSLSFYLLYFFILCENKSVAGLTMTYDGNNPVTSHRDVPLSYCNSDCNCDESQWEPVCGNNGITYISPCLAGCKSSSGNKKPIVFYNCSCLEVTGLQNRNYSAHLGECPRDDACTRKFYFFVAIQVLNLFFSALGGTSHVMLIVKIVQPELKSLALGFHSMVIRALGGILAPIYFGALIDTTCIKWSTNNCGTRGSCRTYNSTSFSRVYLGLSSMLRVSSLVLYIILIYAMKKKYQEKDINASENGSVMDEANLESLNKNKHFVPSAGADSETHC

The nature of data set [2]: in vivo. The conditions noted are these: male, CD (Sprague-Dawley) IGS, rat; for Cmax: po, 840 mg/kg, Cmax plasma level.
Data set [3] addresses T2, BCRP (Homo sapiens, UniProt Q9UNQ0).
T2 sequence (Q9UNQ0 1-655): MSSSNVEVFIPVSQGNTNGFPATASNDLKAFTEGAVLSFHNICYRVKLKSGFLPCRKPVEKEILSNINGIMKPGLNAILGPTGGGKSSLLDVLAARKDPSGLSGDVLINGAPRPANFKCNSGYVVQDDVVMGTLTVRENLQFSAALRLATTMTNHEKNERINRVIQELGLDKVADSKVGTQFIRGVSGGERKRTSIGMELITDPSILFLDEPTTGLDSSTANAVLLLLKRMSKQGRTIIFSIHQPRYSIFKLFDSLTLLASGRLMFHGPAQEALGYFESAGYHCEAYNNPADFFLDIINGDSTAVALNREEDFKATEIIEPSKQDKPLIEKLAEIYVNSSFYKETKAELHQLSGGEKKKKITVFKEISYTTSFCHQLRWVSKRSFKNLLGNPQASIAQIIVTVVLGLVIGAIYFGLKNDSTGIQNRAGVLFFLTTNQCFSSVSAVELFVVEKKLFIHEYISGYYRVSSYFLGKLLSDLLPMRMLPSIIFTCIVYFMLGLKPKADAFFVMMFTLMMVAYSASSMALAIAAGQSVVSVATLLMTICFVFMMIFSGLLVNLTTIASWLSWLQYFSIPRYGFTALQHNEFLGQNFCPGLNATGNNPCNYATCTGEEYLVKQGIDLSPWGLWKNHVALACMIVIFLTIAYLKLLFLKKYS
As to the kind of experiment: BCRP IC50 assessment, bidirectional cladribine transport in BCRP-MDCK cells. The method, then: (§1) After 30 minutes, the pre-incubation solution was aspirated.

Data set [4] deals with P-gp (Homo sapiens, UniProt P08183). As to the kind of experiment: P-gp IC50 assessment, bidirectional digoxin transport in MDR1-MDCK cells.
Data set [5] has as its target T3, OAT1 (Homo sapiens, UniProt Q4U2R8).
T3 construct: expressed in transfected cells; host or cells: HEK293
T3 sequence (Q4U2R8 1-563): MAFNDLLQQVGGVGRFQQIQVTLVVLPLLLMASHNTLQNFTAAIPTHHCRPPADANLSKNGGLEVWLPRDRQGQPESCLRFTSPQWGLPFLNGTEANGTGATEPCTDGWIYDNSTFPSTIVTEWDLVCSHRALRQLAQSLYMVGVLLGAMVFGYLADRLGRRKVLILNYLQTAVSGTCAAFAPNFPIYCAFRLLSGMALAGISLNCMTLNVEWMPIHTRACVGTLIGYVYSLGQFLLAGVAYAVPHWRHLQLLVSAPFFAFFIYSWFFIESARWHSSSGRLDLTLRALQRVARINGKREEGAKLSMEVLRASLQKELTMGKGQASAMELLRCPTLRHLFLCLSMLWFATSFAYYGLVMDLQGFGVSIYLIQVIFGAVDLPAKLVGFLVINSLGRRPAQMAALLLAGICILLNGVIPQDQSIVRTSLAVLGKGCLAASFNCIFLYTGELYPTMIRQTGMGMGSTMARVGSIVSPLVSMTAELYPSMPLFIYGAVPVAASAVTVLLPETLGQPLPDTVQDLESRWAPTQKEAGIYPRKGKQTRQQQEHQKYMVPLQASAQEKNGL
As to the kind of experiment: OAT1 inhibitor (IC50) assessment, PAH uptake in transfected HEK cells. It is filed as in vitro ADME.

Data set [6] is described as follows: Solubility assessment in HBSSg_7.4 and HBSSg_8.5. The following applies: for solubility: 37 °C, thermodynamic from solid; for Measured Concentration / Percent of the Nominal Concentration: replicates 1-3; for Measured Concentration: incubated overnight.
The nature of data set [7]: Human Plasma Protein Binding. It is filed as in vitro ADME.
Data set [8] can be described thus: Non-specific binding assessment, efflux transporter format (cell-free Transwell plates). It is filed as in vitro ADME. The conditions noted are these: pH 7.4, all three replicates. The text has this:
Triplicate wells were used for the assay (Table 31). The samples were withdrawn at pre-selected time points from the receiver and donor compartments and mixed with an equal volume of acetonitrile containing IS.

The target in data set [9] is T2, BCRP. Kind of data set: BCRP IC50 assessment, bidirectional cladribine transport in C2BBe1 cells. The method, then:
as §1

The mark [10] stands for this setting: TUDCA and PB present simultaneously, PAH uptake, HEK cells, read-out: estimated IC50 toward OAT1.
The mark [11] stands for this setting: previous study (Example 6), converted, read-out: IC50 for in vitro inhibition of human OAT1.
Where [12] appears, read: HBSSg 7.4 buffer, pH 7.4, aqueous buffer.
Where [13] appears, read: HBSSg 8.5 buffer, pH 8.5, aqueous buffer.

P-gp, sequence (P08183 whole entry): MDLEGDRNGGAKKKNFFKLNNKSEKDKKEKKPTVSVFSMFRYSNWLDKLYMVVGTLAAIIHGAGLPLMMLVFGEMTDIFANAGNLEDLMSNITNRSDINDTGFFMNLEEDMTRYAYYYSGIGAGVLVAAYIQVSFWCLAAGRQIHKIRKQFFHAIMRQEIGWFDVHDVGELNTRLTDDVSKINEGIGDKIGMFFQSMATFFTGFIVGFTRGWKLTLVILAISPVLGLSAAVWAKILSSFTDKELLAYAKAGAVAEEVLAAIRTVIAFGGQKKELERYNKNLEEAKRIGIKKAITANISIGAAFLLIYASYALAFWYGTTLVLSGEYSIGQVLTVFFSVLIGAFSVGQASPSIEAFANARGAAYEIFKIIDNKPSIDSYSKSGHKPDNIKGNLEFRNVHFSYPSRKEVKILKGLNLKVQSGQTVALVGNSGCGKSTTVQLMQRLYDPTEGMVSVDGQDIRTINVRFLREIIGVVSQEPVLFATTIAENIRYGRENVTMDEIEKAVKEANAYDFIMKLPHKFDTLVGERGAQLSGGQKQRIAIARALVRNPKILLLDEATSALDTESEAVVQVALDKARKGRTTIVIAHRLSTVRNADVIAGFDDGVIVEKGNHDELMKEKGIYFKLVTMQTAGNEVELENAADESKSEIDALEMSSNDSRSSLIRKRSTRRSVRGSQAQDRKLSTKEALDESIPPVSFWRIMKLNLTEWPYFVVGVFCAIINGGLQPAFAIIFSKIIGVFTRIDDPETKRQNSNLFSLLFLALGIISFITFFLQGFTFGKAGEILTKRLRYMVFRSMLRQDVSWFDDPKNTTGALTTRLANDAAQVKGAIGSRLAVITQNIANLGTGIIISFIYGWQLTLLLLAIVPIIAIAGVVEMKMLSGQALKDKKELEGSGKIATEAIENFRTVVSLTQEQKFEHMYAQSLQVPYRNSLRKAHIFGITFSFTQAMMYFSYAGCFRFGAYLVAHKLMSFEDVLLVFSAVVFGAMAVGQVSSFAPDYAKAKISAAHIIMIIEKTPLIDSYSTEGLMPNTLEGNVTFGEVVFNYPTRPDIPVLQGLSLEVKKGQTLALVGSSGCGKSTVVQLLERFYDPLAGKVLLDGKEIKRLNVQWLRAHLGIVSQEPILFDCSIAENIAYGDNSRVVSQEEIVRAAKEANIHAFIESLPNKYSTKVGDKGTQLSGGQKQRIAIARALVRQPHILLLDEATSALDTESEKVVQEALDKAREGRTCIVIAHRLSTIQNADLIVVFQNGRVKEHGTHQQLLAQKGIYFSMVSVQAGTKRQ

As for `C[C@H](CCC(=O)NCCS(=O)(=O)O)[C@H]1CC[C@H]2[C@@H]3[C@@H](O)C[C@@H]4C[C@H](O)CC[C@]4(C)[C@H]3CC[C@]12C` [TUDCA, tauroursodeoxycholic acid], the pIC50 (commonly the negative decadic logarithm of the IC50, by convention in mol/L) in data set [1] is 4.41 to 4.89; in [3], 3.05 to 3.53; in [4] it was 2.57 to 3.05; in data set [5] (setting [10]), 6.65 to 7.13; in data set [5] (setting [11]), 6.65 to 7.15; in data set [5] (previous study (Example 6), read-out: IC50 for in vitro inhibition of human OAT1) it was 6.65 to 7.13. In data set [9], this compound showed a pIC50 of 3.18 to 3.65. In addition, the Tmax (usually the time from dosing to the highest level) in data set [2] (individual Tmax) is 1 to 2 h. The concentration in data set [2] peaked (Cmax) at 298 ng/mL. For the same compound, the figures for the solubility in data set [6] (setting [12]) and in data set [6] (setting [13]) were at least 8.01 mM and at least 0.81 mM, respectively. For the same compound, the fraction unbound (in general, free concentration divided by total concentration) in data set [7] is 0.015. Moreover, in [8], the recovery is over 80%.
For `O=C(O)CCCc1ccccc1` [PB, sodium phenylbutyrate], the pIC50 in data set [1] is 2.44 to 2.92; in data set [3], 2.15 to 2.62; in data set [4], 1.67 to 2.15; in data set [5] (setting [10]) it was 4.69 to 5.17; in [5] (setting [11]) it was 4.70 to 5.17; in data set [9], 2.27 to 2.75. In data set [2], the peak level (Cmax) was 10200 ng/mL. Moreover, the figures for the solubility in [6] (setting [12]) and in data set [6] (setting [13]) were at least 64.4 mM and at least 73.9 mM, respectively. In addition, the “Measured Concentration” value in data set [6] (HBSSg_7.4) was 52000 µM and 59300 µM and 52800 µM; in data set [6] (HBSSg_8.5), 62200 µM and 53200 µM and 61100 µM. In addition, the “Percent of the Nominal Concentration” value in data set [6] (HBSSg_7.4, target 8005 (TUDCA), 64447 μM (PB)) was 80.7% and 92.0%; in data set [6] (HBSSg_8.5, target 810 μM (TUDCA), 73927 μM (PB)) it was 84.1% and 72.0% and 82.6%. Further, the fraction unbound in [7] is 0.179. The same compound displayed a recovery in [8] of over 80%.
